Experiments:
β-tubulin = test: Tubulin polymerization inhibition (beta-tubulin ELISA in HepG2 cells); format: cell-based, human; details: HepG2 cells, each compound at its IC50 concentration (9 1.38, 10 2.52, 11 3.21, podo 2.08 μM), ELISA
Protocol: The selected candidates were tested at a concentration equal to their IC50 concentration dose value. […] See Section 3.3.2 in Supplementary Material. […] page 18: 3.3. Biological studies 3.3.1. Cytotoxic activity evaluation To measure the cytotoxic activity of the synthesized derivatives 2a-11 in hepatocel- lular carcinoma (HepG2) cell line (ATCC Cat No. HB-8065) as well as normal human liver cell line HL-7702 (ATCC Cat. No. 77402), cell viability assay was assessed using MTT assay method. Cells at density of 1 x 104 were seeded in a 96-well plate at 37 °C for 24 h under 5% CO2. After incubation, the cells were treated with different concentrations of the test compounds 2a-11 and incubated for 24 h, then 20 μl of MTT solution at 5 mg/mL was […] Dimethyl sulphoxide (DMSO) in volume of 100 μl was added to each well to dissolve the purple formazan that had formed. The color […] of the formazan product, which represents the growth condition of the cells, is quan- […] by using an ELISA plate reader (EXL 800, USA) at 570 nm absorbance. The experi- mental conditions were carried out with at least three replicates, and the experiments were repeated at least three times. 3.3.2. Tubulin inhibitions Assay […] according to the manufacturer's instructions using # abcam Human Beta-tubulin […] ELISA Kit ab245722. 3.3.3. Cell cycle analysis of compound 9 Cell cycle analysis in HepG2 cells was investigated using fluorescent Annexin V- FITC/ PI detection kit (BioVision EZCellTM Cell Cycle Analysis Kit Catalog #K920) by flow cytometry assay. […] twice in PBS. After that, the cells were incubated at 37 °C and 5% CO2. […] Apoptosis assay for compound 9 Apoptosis in HepG2 cells was investigated using fluorescent Annexin V-FITC/ PI de- tection kit (BioVision Annexin V-FITC Apoptosis Detection Kit, Catalog #: K101) by flow cy- tometry assay. […] The samples were immediately analyzed using FACS Calibur flow cytometer (Becton and Dickinson, Heidelberg, Germany). 3.3.5. Measurement of mitochondrial membrane potential (MMP) for compound 9 MMP was measured by FACS analysis using abcam ab113852TMRE Mitochondrial Membrane Potential Assay Kit with DiOC2(3) staining using MitoProbeTM DiOC2(3) Assay Kit for Flow Cytometry (M34150). After treatment with compound 9 at its IC50 concentra- tion, cells were stained with DiOC2(3) dye for 30 min in the incubator, then harvested and washed with PBS. […] The samples were immediately analyzed using cell Quest software. […] Effect on p53, Bax and Bcl-2 p53, Bax and Bcl2 enzyme activities in HepG2 cells were detected in the presence of com- pound 9 at its IC50 concentration (μM). The levels of the tumor suppressor gene p53, apoptotic markers Bax as well as the anti-apoptotic marker Bcl-2 were assessed using p53 ELISA kit, Human Bax ELISA kit and Bcl-2 Elisa kit. […]

HepG2 cells = test: Annexin V-FITC/PI dual staining apoptosis assay; format: cell-based, human
Protocol: The extent of apoptosis induced by compound 9 in HepG2 cells was quantified by the FACS analysis. Cells were harvested after 48 h and analyzed for apoptosis percentage by flow cytometry.
[…] analysis in HepG2 cells was carried out by FACS analysis according to the manufacturer’s directions. See Section 3.3.4 in Supplementary Material.
Figure 4 Compound 9 induces apoptosis in HepG2 cells. (A) HepG2 cells were treated with 1.38 μM of compound 9 for 48 h. Cell apoptosis was quantized by Annexin V-FITC/PI dual staining assay using image-based cytometry. (B) The quantification of HepG2 cell apoptosis.
3.3.1. Cytotoxic activity evaluation
To measure the cytotoxic activity of the synthesized derivatives 2a-11 in hepatocel-lular carcinoma (HepG2) cell line (ATCC Cat No. HB-8065) as well as normal human liver cell line HL-7702 (ATCC Cat. No. 77402), cell viability assay was assessed using MTT assay method. Cells at density of 1 x 104 were seeded in a 96-well plate at 37 °C for 24 h under 5% CO2. […] The color inten-sity of the formazan product, which represents the growth condition of the cells, is quan-tified by using an ELISA plate reader (EXL 800, USA) at 570 nm absorbance. […]
Compounds 9, 10 and 11 were evaluated for their tubulin inhibitory activity levels according to the manufacturer’s instructions using # abcam Human Beta-tubulin simplestep […]
Cell cycle analysis in HepG2 cells was investigated using fluorescent Annexin V-FITC/ PI detection kit (BioVision EZCellTM Cell Cycle Analysis Kit Catalog #K920) by flow cytometry assay. […] The samples were immediately analyzed using Facs Calibur flow cytometer (Becton and Dickinson, Heidelberg, Germany). […]
Apoptosis in HepG2 cells was investigated using fluorescent Annexin V-FITC/ PI de-tection kit (BioVision Annexin V-FITC Apoptosis Detection Kit, Catalog #: K101) by flow cy-tometry assay. […] The samples were immediately analyzed using FACS Calibur flow cytometer (Becton and Dickinson, Heidelberg, Germany).
3.3.5. […] The samples were immediately analyzed using cell […]

[1] = HepG2, IC50 concentration, 48 h

COc1ccc(C2=N/C(=C\c3cc(OC)c(OC)c(OC)c3)C(=O)NN2c2ccccc2)cc1OC [Compound 9, (Z)-3-(3,4-Dimethoxyphenyl)-2-Phenyl-5-(3,4,5-Trimethoxybenzylidene)-1,2-Dihydro-1,2,4-Triazin-6(5H)-one]
β-tubulin polymerization inhibition percentage (β-tubulin): 86.73% | increase in Annexin-V-positive cells compared with untreated control (HepG2 cells; HepG2): ~18 fold | increase in percentage of early apoptosis compared with untreated control (HepG2 cells; [1]): 16.63 fold | increase in percentage of late apoptosis compared with untreated control (HepG2 cells; [1]): 60.11 fold | melting point: 248 to 250 °C
